This note sets out measurements from patent US9018173B2, “Materials and methods for suppressing inflammatory and neuropathic pain” (Indiana University Research and Technology Corp., priority 2010, dated 2015).

Residues, ends and D or L forms follow the SMILES beside them.

Data set [1] relates to anxiety-associated behavior. Nature of the data set: Elevated plus maze (EPM). The format is in vivo, C57BL6 mice. The following applies: for Elevated Plus Maze: Closed arm entries / Elevated Plus Maze: Closed arm latency to enter / Elevated Plus Maze: Closed arm latency to exit / Elevated Plus Maze: Open arm entries / Elevated Plus Maze: Open arm latency to enter / Elevated Plus Maze: Open arm latency to exit: C57BL6 mice, 1 h after injection, 5 min test.

For the next data set, the target named is T1, CaV2.2 (Rattus norvegicus, UniProt Q02294).
T1 construct: incubated with a purified synaptosome fraction enriched in Ca^2+ channels; from tissue; host or cells: P1 neonatal rat brain synaptosomes, enriched on WGA-Sepharose and heparin-agarose
T1 sequence (Q02294 whole entry): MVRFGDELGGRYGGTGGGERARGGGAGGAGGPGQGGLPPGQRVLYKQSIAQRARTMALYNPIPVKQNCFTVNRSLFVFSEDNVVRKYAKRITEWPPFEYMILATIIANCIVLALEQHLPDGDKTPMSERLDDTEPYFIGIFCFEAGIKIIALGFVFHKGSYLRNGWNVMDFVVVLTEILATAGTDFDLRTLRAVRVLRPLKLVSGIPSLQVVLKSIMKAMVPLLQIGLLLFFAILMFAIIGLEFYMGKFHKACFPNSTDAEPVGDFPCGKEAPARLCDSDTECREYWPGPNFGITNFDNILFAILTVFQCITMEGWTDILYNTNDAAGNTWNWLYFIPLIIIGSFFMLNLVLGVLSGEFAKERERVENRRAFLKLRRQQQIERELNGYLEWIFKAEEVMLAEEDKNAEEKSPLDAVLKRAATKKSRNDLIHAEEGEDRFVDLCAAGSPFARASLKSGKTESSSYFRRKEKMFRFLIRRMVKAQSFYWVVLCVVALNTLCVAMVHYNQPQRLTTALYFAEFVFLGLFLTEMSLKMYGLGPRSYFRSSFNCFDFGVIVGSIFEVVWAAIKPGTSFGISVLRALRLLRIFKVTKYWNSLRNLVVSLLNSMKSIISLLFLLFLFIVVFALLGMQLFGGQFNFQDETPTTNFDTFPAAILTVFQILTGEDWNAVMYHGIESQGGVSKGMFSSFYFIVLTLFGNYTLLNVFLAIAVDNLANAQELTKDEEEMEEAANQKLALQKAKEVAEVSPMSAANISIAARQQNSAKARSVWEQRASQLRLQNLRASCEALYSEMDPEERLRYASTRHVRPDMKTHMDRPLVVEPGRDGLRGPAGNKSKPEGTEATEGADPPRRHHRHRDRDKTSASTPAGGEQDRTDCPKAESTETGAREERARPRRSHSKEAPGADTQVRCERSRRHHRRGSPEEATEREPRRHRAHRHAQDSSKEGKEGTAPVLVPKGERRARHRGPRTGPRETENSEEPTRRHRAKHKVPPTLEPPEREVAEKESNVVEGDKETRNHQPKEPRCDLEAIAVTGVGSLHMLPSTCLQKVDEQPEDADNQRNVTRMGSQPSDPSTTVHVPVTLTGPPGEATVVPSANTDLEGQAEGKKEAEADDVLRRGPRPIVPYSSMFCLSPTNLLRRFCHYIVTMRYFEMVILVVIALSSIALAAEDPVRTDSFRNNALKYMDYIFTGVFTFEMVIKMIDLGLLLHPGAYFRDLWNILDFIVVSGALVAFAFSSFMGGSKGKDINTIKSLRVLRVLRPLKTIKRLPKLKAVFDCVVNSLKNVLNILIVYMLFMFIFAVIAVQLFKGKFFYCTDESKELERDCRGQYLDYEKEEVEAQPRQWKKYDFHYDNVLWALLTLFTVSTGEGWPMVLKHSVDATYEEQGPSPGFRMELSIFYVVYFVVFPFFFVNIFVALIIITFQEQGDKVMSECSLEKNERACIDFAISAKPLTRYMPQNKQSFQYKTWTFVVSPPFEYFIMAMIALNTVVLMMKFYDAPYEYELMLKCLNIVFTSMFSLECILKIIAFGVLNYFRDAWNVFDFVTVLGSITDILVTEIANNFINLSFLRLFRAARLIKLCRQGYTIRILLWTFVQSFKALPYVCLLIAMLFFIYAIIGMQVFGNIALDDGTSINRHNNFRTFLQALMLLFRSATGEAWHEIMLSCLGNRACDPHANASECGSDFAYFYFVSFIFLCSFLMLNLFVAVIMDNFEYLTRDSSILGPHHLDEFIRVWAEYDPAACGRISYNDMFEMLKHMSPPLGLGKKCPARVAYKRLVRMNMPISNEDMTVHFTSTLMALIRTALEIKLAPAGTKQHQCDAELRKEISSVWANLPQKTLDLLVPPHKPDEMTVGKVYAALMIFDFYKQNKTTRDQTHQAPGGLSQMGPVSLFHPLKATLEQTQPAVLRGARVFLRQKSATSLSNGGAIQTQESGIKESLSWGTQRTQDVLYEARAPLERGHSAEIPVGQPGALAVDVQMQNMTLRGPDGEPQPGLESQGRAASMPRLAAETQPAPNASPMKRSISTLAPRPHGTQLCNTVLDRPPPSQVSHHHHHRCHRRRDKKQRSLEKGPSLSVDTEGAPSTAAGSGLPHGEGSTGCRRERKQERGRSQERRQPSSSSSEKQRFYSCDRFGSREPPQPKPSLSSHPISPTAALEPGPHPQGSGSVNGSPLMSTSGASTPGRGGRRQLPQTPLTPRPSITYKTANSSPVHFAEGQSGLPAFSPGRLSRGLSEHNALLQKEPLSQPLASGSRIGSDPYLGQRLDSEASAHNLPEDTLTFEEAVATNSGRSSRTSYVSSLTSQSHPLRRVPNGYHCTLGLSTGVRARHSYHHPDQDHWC
As to the kind of experiment: Peptide spot array far-Western: CaV2.2 binding to 15-mer CRMP-2 peptides. The following applies: 15-mer peptide #96 overlaid with spinal cord lysates / rat brain synaptosomes. As to the method:
Purification/Enrichment of Ca^2+ channels from synaptosomes. In order to prepare a rich source of CaV2.2 for the far-Western analyses (see below), synaptosomes from P1 neonatal rat brains were solubilized with digitonin and enriched by chromatography on WGA-Sepharose as described previously. Briefly, 30 PN1 neonatal rat brains were homogenized in 180 ml of 320 mM sucrose with a glass-Teflon homogenizer. After a short centrifugation (5000 rpm, 2 min), the supernatant (SN) was centrifuged (42,000 rpm, 60 min). The membranes were solubilized with 1.2% digitonin, 80 mM sodium phosphate buffer, pH 7.4 for 20 min. Unsolubilized material was removed by the centrifugation as before, and the supernatant (S3) was poured over a 40 ml WGA-Sepharose column (50 ml/h). After incubation for 1 hr at 4° C., the column was washed with 10 column volumes of 0.1% digitonin, 75 mM NaCl, 50 mM sodium phosphate, 10 mM Tris-HCl (pH 7.4) at a flow rate of 50 ml/hr. The glycoproteins bound to the WGA-Sepharose column were eluted with 100 mM N-acetyl-D-glucosamine (Sigma, St. Louis, Mo.) in the same buffer at a flow rate of 50 ml/hr. Three milliliter fractions were collected and the protein concentration of each fraction was determined by BCA protein assay kit (Thermo Fisher Scientific, Shelbyville, Ind.). […]

Data set [2] has as its system CaV2.2 cytosolic loop 1 (L1) and distal C-terminus (Ct-dis). As to the kind of experiment: Surface plasmon resonance binding to CaV2.2 L1- and Ct-dis-GST fusion proteins. To be noted: peptide 1/3/5 μM. Also on record: species or system rat. The text has this:
In Vitro Protein Binding Assays. Using Vector NTI (v. 11; Invitrogen) software, primers were designed to amplify regions corresponding to the first cytoslic loop (L1; amino acids 356 to 483) and the distal end of the C-terminus (Ct-dis; amino acids 2133 to 2348) of rat CaV2.2 cDNA from P3 rat brain cDNA. The primers harbored restriction sites (Bam HI or Bgl II (5′) and Eco RI or Mfe I (3′)) to facilitate cloning into […]. In addition to the GST-tag, this vector contains the Glu tag, a sequence of six amino acids (EYMPME). Correctly-amplified PCR products and parent pGex-3x-Glu vector were digested with the indicated restriction enzymes, and then extracted following electrophoresis on an agarose gel. The extracted DNAs were quantified (Nanodrop 1000, Thermo Scientific), and ligations were performed using 6:1 and 3:1 insert to vector molar ratios. […]
Surface Plasmon resonance (SPR). Binding analyses between TAT CBD3 or TAT control peptides and CaV2.2 L1- or Ct-dis-GST fusion proteins was determined by surface plasmon resonance using a BIAcore3000 instrument (Biacore AB, Uppsala, Sweden). […]
Biochemistry and immunocytochemistry experiments. […] The binding between TAT CBD3 or TAT control peptides and CaV2.2 L1- or Ct-dis-GST fusion proteins was determined by surface plasmon resonance using a BIAcore3000 instrument (Biacore AB, Uppsala, Sweden).
On the technique in general: SPR reads the build-up and loss of mass on a sensor chip optically.

Take `CC(C)C[C@H](NC(=O)CNC(=O)[C@H](CCCNC(=N)N)NC(=O)[C@@H]1CCCN1C(=O)[C@@H](NC(=O)CNC(=O)[C@H](CCCNC(=N)N)NC(=O)[C@H](CC(C)C)NC(=O)[C@H](CCC(=O)O)NC(=O)[C@H](C)NC(=O)[C@H](CC(C)C)NC(=O)[C@H](CCCNC(=N)N)NC(=O)[C@H](CO)NC(=O)[C@H](CCCNC(=N)N)NC(=O)[C@H](C)NC(=O)[C@H](CCCNC(=N)N)NC(=O)[C@H](CCCNC(=N)N)NC(=O)[C@H](CCCNC(=N)N)NC(=O)[C@H](CCC(N)=O)NC(=O)[C@H](CCCNC(=N)N)NC(=O)[C@H](CCCNC(=N)N)NC(=O)[C@H](CCCCN)NC(=O)[C@H](CCCCN)NC(=O)[C@H](CCCNC(=N)N)NC(=O)CNC(=O)[C@@H](N)Cc1ccc(O)cc1)C(C)C)C(=O)O` [TAT-CBD3] (H-YGRKKRRQRRRARSRLAELRGVPRGL-OH; N-terminus and C-terminus assumed): in data set [1] (0.1 mg/kg i.p.), the “Elevated Plus Maze: Closed arm entries” value stood at 19.1 ± 1.4, the “Elevated Plus Maze: Closed arm latency to enter” value amounted to 4.5 ± 2.2 s, the “Elevated Plus Maze: Closed arm latency to exit” value is given as 14.9 ± 2.9 s and the “Elevated Plus Maze: Open arm entries” value came to 13.6 ± 1.6. In data set [1] (0.1 mg/kg i.p.), the “Elevated Plus Maze: Open arm latency to enter” value came to 10.3 ± 2.7 s and the “Elevated Plus Maze: Open arm latency to exit” value was found to be 17.7 ± 2.5 s. Further, in data set [1] (1 mg/kg i.p.), the “Elevated Plus Maze: Closed arm entries” value stood at 26.4 ± 4.2, the “Elevated Plus Maze: Closed arm latency to enter” value came to 2.4 ± 2.1 s, the “Elevated Plus Maze: Closed arm latency to exit” value is 11.1 ± 2.6 s and the “Elevated Plus Maze: Open arm entries” value is reported as 19.7 ± 3.1. For the same compound, in data set [1] (1 mg/kg i.p.), the “Elevated Plus Maze: Open arm latency to enter” value turned out to be 10.1 ± 2.9 s and the “Elevated Plus Maze: Open arm latency to exit” value is 16.4 ± 3.1 s. Moreover, in data set [1] (10 mg/kg i.p.), the “Elevated Plus Maze: Closed arm entries” value is 27.4 ± 7.0, the “Elevated Plus Maze: Closed arm latency to enter” value came to 5.3 ± 2.2 s, the “Elevated Plus Maze: Closed arm latency to exit” value came to 10.6 ± 3.5 s and the “Elevated Plus Maze: Open arm entries” value amounted to 20.0 ± 6.1. Moreover, in data set [1] (10 mg/kg i.p.), the “Elevated Plus Maze: Open arm latency to enter” value is recorded as 4.6 ± 1.9 s and the “Elevated Plus Maze: Open arm latency to exit” value came out at 11.1 ± 2.1 s. In addition, in data set [1] (any dose, compared to TAT-Scramble), the “EPM time in and entries into open/closed arms” value is recorded as “neither time spent in the open or closed arms, nor frequency of entries into the open nor closed arms were altered”.
As for ARSRLAELRGVPRGL (CBD3), the “binding to CaV2.2” value with CaV2.2 was “bound to the CaV2.2”. In data set [2], the “binding to immobilized L1 and Ct-dis proteins (surface plasmon resonance)” value was “bound to immobilized L1 and Ct-dis proteins”.
